PubChem BioAssay (NCI)
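GI50: concentration for 50% inhibition of growth. Definition used: TGI = concentration required for complete inhibition of growth.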

Columns and labels:
Assay in all cases: NCI tumour cell line growth inhibition, 384-well format
[1] = system: 786-0 renal
[2] = system: CAKI-1 renal
[3] = system: HCT-15 colon
[4] = system: KM12 colon
[5] = system: MCF7 breast
[6] = system: MOLT-4 leukemia
[7] = system: NCI-H522 lung
[8] = system: OVCAR-4 ovarian
[9] = system: RPMI-8226 leukemia
[10] = system: SF-295 CNS
[11] = system: SF-539 CNS
[12] = system: SK-MEL-2 melanoma
[13] = system: TK-10 renal

CC[C@H](Nc1ncnc2nc[nH]c12)c1oc2ccccc2c(=O)c1-c1cccc(F)c1
GI50 [1]: 27.2 µM
TGI [1]: > 95 µM
GI50 [2]: 28.6 µM
TGI [2]: > 100 µM
GI50 [3]: 30.7 µM
TGI [3]: 99.1 µM
GI50 [4]: 36.8 µM
TGI [4]: > 100 µM
GI50 [5]: 29.6 µM
TGI [5]: > 87.3 µM
GI50 [6]: 15.8 µM
TGI [6]: 29.6 µM
GI50 [7]: 20.6 µM
TGI [7]: 47.7 µM
GI50 [8]: 17.9 µM
TGI [8]: 54.2 µM
GI50 [9]: 8.38 µM
TGI [9]: 20.5 µM
GI50 [10]: 20.7 µM
TGI [10]: > 74.6 µM
GI50 [11]: 45.9 µM
TGI [11]: > 100 µM
GI50 [12]: 13.7 µM
TGI [12]: 30.1 µM
GI50 [13]: 29.8 µM
TGI [13]: > 95.2 µM
